The results in this text go back to PMC7029560, “Functional characterization of acyl-CoA binding protein in Neospora caninum” (Parasites & Vectors, 2020).

For this test, the target named is T1, NcACBP (rNcACBP-GST) (Neospora caninum, UniProt F0VR91).
T1 construct: gene NCLIV_066640
T1 sequence (F0VR91 1-95): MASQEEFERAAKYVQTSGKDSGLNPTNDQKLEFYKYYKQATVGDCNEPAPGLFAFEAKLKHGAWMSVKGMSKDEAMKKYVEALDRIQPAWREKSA
The test can be described thus: fluorescence binding assay (SpectraMax M5, […] nm). The following applies: 1 uM GST-fusion protein, 0-0.3 uM ligand, PBS, room temperature, 5 min; labelled compound.

In turn, NBD-C16:0-CoA returned a Kd of 11.7 nM. This lies in the double-digit nanomolar range.

What is called Kd is the concentration at which binding is half-saturated.
